Test system: Mycobacterium tuberculosis H37Rv (ATCC: 25177)
Assay: Anti-tubercular activity, colorimetric Resazurin Microplate Assay (REMA)
Format: cell-based
Conditions: 192 h, read-out: Anti-tubercular activity against Mycobacterium tuberculosis H37Rv (MIC)

Row | SMILES | MIC
1 | CC(C)OC(=O)c1cc[n+](CC(=O)c2ccccc2)cc1.[Br-] [Compound 4a, 4-(Isopropoxycarbonyl)-1-(2-oxo-2-phenylethyl)pyridin-1-ium Bromide] | 0.5 µg/mL
2 | CC(C)OC(=O)c1cc[n+](CC(=O)c2ccc(F)cc2)cc1.[Br-] [Compound 4b, 1-(2-(4-Fluorophenyl)-2-oxoethyl)-4-(isopropoxycarbonyl)pyridin-1-ium bromide] | 1 µg/mL

Reference: patent US11919860B1 (priority 2023, dated 2024)
